Assay results: patent US20140314780A1, “Compositions Using Antibodies Directed to GPNMB and Uses Thereof” (Celldex Therapeutics, Inc., priority 2008, published 2014)

What was measured:
phospho-ERK (pp-ERK) = experiment: Immunoblotting for phospho-ERK (level of ERK activation); format: cell-based, human
From the text: In the experiment presented in FIG. 2A, potential inhibition of the ERK pathway was investigated by immunoblotting for phospho-ERK (pp-ERK), which represents the active form of this signaling molecule.

[1] = tested on: GPNMB surface expression on SF539 glioblastoma cells; experiment: Flow cytometry of GPNMB surface expression, SF539 cells; format: cell-based, human; conditions: SF549, CR011 (anti-GPNMB) primary antibody
Method: (§1) Cells were seeded in 6-well tissue culture dishes at a subconfluent density and allowed to attach overnight. The following day, cells were treated as indicated in the figures/legends, harvested with versene (Invitrogen), washed with PBS and incubated with primary antibody (10 μg/mL) diluted in staining buffer (PBS pH 7.4, 4% FBS, 0.1% sodium azide) for 30 minutes on ice. […] After incubation with primary antibody, samples were washed with staining buffer and then incubated with secondary antibody (PE-conjugated anti-human antibody; 1:100) for 30 minutes on ice. After incubation, samples were washed with staining buffer and examined on a Becton Dickinson FACSCalibur flow cytometer (BD Immunocytometry Systems, San Jose, Calif.). Data analysis was performed with Becton Dickinson Cell Quest software and the geometric mean fluorescence intensity (GeoMean) was determined for each sample.
(§2) For the data shown in Table 37, flow cytometry was performed on intact, non-permeabilized cells using the indicated primary monoclonal antibodies. […] The results are reported as GeoMeans. […] For the data shown in the bottom left panel of Table 37, SKMEL2 (melanoma) cells were treated with MEKi (U0126; 10 uM), imatinib (20 uM), p38i (p38 MAPKi SB202190; 50 uM), NH4Cl (ammonium chloride; 20 mM) or CLQ (chloroquine; 20 uM) for 48 hours prior to analysis. For the data shown in the bottom right panel of Table 37, WM2664 (melanoma) cells were treated with MON (monensin) or MMPi (GM6001) for 48 hours prior to analysis.

[2] = tested on: GPNMB surface expression on SKMEL2 melanoma cells; experiment: Flow cytometry of GPNMB surface expression, SKMEL2 cells; format: cell-based, human; conditions: SKMEL2; CR011 (anti-GPNMB) primary antibody; MEKi (U0126) 10 uM, imatinib 20 uM, p38i (SB202190) 50 uM
Method: as §1
For the data shown in Table 37, flow cytometry was performed on intact, non-permeabilized cells using the indicated primary monoclonal antibodies. […] The results are reported as GeoMeans. For the data shown in the top panel of Table 37, A375 (melanoma) or SF539 (glioblastoma) cells were treated with the indicated concentrations of MEKi (U0126), RAFKi (553013) or ERKi (FR180204) for 12, 24 or 48 hours prior to analysis. For the data shown in the bottom left panel of Table 37, SKMEL2 (melanoma) cells were treated with MEKi (U0126; 10 uM), imatinib (20 uM), p38i (p38 MAPKi SB202190; 50 uM), NH4Cl (ammonium chloride; 20 mM) or CLQ (chloroquine; 20 uM) for 48 hours prior to analysis. For the data shown in the bottom right panel of Table 37, WM2664 (melanoma) cells were treated with MON (monensin) or MMPi (GM6001) for 48 hours prior to analysis.

[3] = tested on: MART-1, TYRP-2, TYRP-1, PMEL17, MAGEA1, MCSP, MTf, MCAM; conditions: melanoma cell lines, U0126 20 μM, 48 hours (FIG. 5)
Method: Cells were seeded in 6-well tissue culture dishes at a subconfluent density and allowed to attach overnight. For harvesting cell lysates, media was removed, cells were briefly washed with serum-free media and then 1× Tris-glycine SDS sample buffer (Invitrogen, Carlsbad, Calif.) supplemented with 10 mM dithiothreitol (Sigma) was added directly to the wells. Cell lysates were then collected and boiled for 10 minutes. For preparing conditioned media, drug treatments were performed in a minimum volume of growth media (1.5 mL/well). Following 48 hours of incubation, conditioned media was collected, briefly microfuged, mixed with an equal volume of 2× Tris-glycine SDS sample buffer (Invitrogen, Carlsbad, Calif.) supplemented with 20 mM dithiothreitol (Sigma) and boiled for 10 minutes. For cell lysates, samples were quantified and an equal quantity of protein/lane was resolved on 4-20% gradient polyacrylamide gels (Invitrogen) and then transferred to nitrocellulose filters (Invitrogen). The volume of conditioned media loaded/lane was adjusted based on the protein concentration determined in the respective cell lysates. […]

[4] = tested on: GPNMB surface expression on A375 melanoma cells; experiment: Flow cytometry of GPNMB surface expression, A375 cells; format: cell-based, human; conditions: for GPNMB surface expression, flow cytometry GeoMean: A375, CR011 (anti-GPNMB) primary antibody
Method: as §1, §2

GPNMB = experiment: Immunoblotting for GPNMB on whole-cell lysates of cancer cell lines after drug exposure; format: cell-based, human
From the text: Cancer cell lines were of human origin and were obtained from the American Type Culture Collection (Manassas, Va.) and from the National Cancer Institute (Bethesda, Md.) and cultured in RPMI-1640 supplemented with 10% FBS (growth media). Sources of reagents were as follows: RAFKi (553013), MEKi (U0126), MEKi (PD98059), MEKi (444939), ERKi (FR180204), p38 MAPKi (SB202190), p38 MAPKi (SB203580), aurora kinase inhibitor (189404), JNK inhibitor (420119), MMPi (GM6001) were from EMD Chemicals (San Diego, Calif.). ERKi (A6355), RAFKi: (GW5074), ammonium chloride (NH4Cl), chloroquine, monensin, cyclohexamide and emetine were from Sigma (Saint Louis, Mo.). HSP90i (geldanamycin) was from AG Scientific (San Diego, Calif.) and imatinib (Gleevec) was purchased from a pharmacy.
Cells were seeded in 6-well tissue culture dishes at a subconfluent density and allowed to attach overnight. For harvesting cell lysates, media was removed, cells were briefly washed with serum-free media and then 1× Tris-glycine SDS sample buffer (Invitrogen, Carlsbad, Calif.) supplemented with 10 mM dithiothreitol (Sigma) was added directly to the wells. Cell lysates were then collected and boiled for 10 minutes. For preparing conditioned media, drug treatments were performed in a minimum volume of growth media (1.5 mL/well). Following 48 hours of incubation, conditioned media was collected, briefly microfuged, mixed with an equal volume of 2× Tris-glycine SDS sample buffer (Invitrogen, Carlsbad, Calif.) supplemented with 20 mM dithiothreitol (Sigma) and boiled for 10 minutes. For cell lysates, samples were quantified and an equal quantity of protein/lane was resolved on 4-20% gradient polyacrylamide gels (Invitrogen) and then transferred to nitrocellulose filters (Invitrogen). The volume of conditioned media loaded/lane was adjusted based on the protein concentration determined in the respective cell lysates. Immunoblotting was performed using standard procedures and the following primary antibodies: MARTI (sc-20032), TYRP2 (sc-25544), TYRP1 (sc-25543), PMEL17 (sc-15010), MAGEA1 (sc-20033), MCSP (sc-20162), MTf (sc-26651), MCAM (sc-18942), pp-ERK (sc-7976) and ERK (sc-94) (preceding antibodies were purchased from Santa Cruz Biotechnologies, Santa Cruz, Calif.), GPNMB (AF2550; R & D Systems, Minneapolis Minn.), actin (A5060; Sigma). Following incubation with the appropriate horseradish peroxidase-conjugated secondary antibodies, enhanced chemiluminescence (GE Healthcare, Chalfont St. Giles, United Kingdom) was used for detection.

N#CC(=C(/N)Sc1ccccc1N)/C(C#N)=C(\N)Sc1ccccc1N [Mab U0126]
inhibition of the ERK pathway (phospho-ERK levels) (phospho-ERK (pp-ERK); A375 and SKMEL2 cell lines (FIG. 3B)): robust and sustained inhibition | inhibition of the ERK pathway (phospho-ERK levels) (phospho-ERK (pp-ERK); SF539 cells (FIG. 3B)): transient inhibition | GPNMB surface expression, flow cytometry GeoMean ([1]; MEKi (U0126) 5 um, 12 h): 41.5 | GPNMB surface expression, flow cytometry GeoMean ([1]; MEKi (U0126) 5 um, 24 h): 36.3 | GPNMB surface expression, flow cytometry GeoMean ([1]; MEKi (U0126) 5 um, 48 h): 41.5 | GPNMB surface expression, flow cytometry GeoMean ([1]; MEKi (U0126) 20 um, 12 h): 46.3 | GPNMB surface expression, flow cytometry GeoMean ([1]; MEKi (U0126) 20 um, 24 h): 39.2 | GPNMB surface expression, flow cytometry GeoMean [2]: 174.5 | expression of MART-1, TYRP-2, TYRP-1, PMEL17 [3]: induced by MEK inhibition in some cell lines | expression of other targets (MAGEA1, MCSP) [3]: either were not effected or even decreased | GPNMB surface expression, flow cytometry GeoMean ([4]; MEKi (U0126) 5 um, 12 h): 14.7 | GPNMB surface expression, flow cytometry GeoMean ([4]; MEKi (U0126) 5 um, 24 h): 16.4 | GPNMB surface expression, flow cytometry GeoMean ([4]; MEKi (U0126) 5 um, 48 h): 52.4 | GPNMB surface expression, flow cytometry GeoMean ([4]; MEKi (U0126) 20 um, 12 h): 18.3 | GPNMB surface expression, flow cytometry GeoMean ([4]; MEKi (U0126) 20 um, 24 h): 22.4 | GPNMB surface expression, flow cytometry GeoMean ([4]; MEKi (U0126) 20 um, 48 h): 84.0 | GPNMB surface expression ([4]; A375 melanoma, 12, 24 or 48 hours (Table 37, top)): induced GPNMB surface expression | GPNMB induction (immunoblotting), kinetics and drug concentration (GPNMB): increased with exposure time | GPNMB induction compared to other melanoma-associated proteins (GPNMB): most consistently induced
